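At the GI50, growth is halved. TGI marks complete inhibition of growth.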
Assays:
Assay in all cases: growth of human tumour cells (NCI), 384-well format
SK-MEL-2 melanoma = system: SK-MEL-2 melanoma
SW-620 colon = system: SW-620 colon
COLO 205 colon = system: COLO 205 colon
RPMI-8226 leukemia = system: RPMI-8226 leukemia
NCI-H522 lung = system: NCI-H522 lung
SNB-75 CNS = system: SNB-75 CNS
DU-145 prostate = system: DU-145 prostate
SN12C renal = system: SN12C renal
TK-10 renal = system: TK-10 renal
HS 578T breast = system: HS 578T breast
MCF7 breast = system: MCF7 breast
SK-OV-3 ovarian = system: SK-OV-3 ovarian
PC-3 prostate = system: PC-3 prostate
ACHN renal = system: ACHN renal
SF-539 CNS = system: SF-539 CNS
BT-549 breast = system: BT-549 breast
786-0 renal = system: 786-0 renal
M14 melanoma = system: M14 melanoma
MALME-3M melanoma = system: MALME-3M melanoma
A498 renal = system: A498 renal
RXF 393 renal = system: RXF 393 renal
IGROV1 ovarian = system: IGROV1 ovarian
SF-268 CNS = system: SF-268 CNS
NCI-H322M lung = system: NCI-H322M lung
HOP-62 NSCLC = system: HOP-62 NSCLC
KM12 colon = system: KM12 colon
NCI-H23 lung = system: NCI-H23 lung
MOLT-4 leukemia = system: MOLT-4 leukemia
SF-295 CNS = system: SF-295 CNS
UO-31 renal = system: UO-31 renal
U251 glioblastoma = system: U251 glioblastoma
NCI-H226 lung = system: NCI-H226 lung
HCT-15 colon = system: HCT-15 colon
SNB-19 CNS = system: SNB-19 CNS
T-47D breast = system: T-47D breast
OVCAR-3 ovarian = system: OVCAR-3 ovarian
UACC-257 melanoma = system: UACC-257 melanoma
NCI/ADR-RES ovarian = system: NCI/ADR-RES ovarian
MDA-MB-435 melanoma = system: MDA-MB-435 melanoma
OVCAR-4 ovarian = system: OVCAR-4 ovarian
SR leukemia = system: SR leukemia
MDA-MB-468 breast = system: MDA-MB-468 breast
CAKI-1 renal = system: CAKI-1 renal
SK-MEL-5 melanoma = system: SK-MEL-5 melanoma
HT29 colon = system: HT29 colon
NCI-H460 NSCLC = system: NCI-H460 NSCLC
K-562 leukemia = system: K-562 leukemia
CCRF-CEM leukemia = system: CCRF-CEM leukemia
OVCAR-5 ovarian = system: OVCAR-5 ovarian
HL-60(TB) leukemia = system: HL-60(TB) leukemia
A549 NSCLC = system: A549 NSCLC
SK-MEL-28 melanoma = system: SK-MEL-28 melanoma
MDA-MB-231 breast = system: MDA-MB-231 breast
HOP-92 NSCLC = system: HOP-92 NSCLC
HCC-2998 colon = system: HCC-2998 colon
HCT-116 colon = system: HCT-116 colon
UACC-62 melanoma = system: UACC-62 melanoma
LOX IMVI melanoma = system: LOX IMVI melanoma

Question: Which results are given for `COc1cccc(Nc2ncnn3ccc(CN4CC[C@@H](N)[C@H](O)C4)c23)c1`?
Answer: GI50 (SK-MEL-2 melanoma): 26.7 µM; TGI (SK-MEL-2 melanoma): 41.5 µM; GI50 (SW-620 colon): 17.5 µM; TGI (SW-620 colon): 32.5 µM; GI50 (COLO 205 colon): 14.8 µM; TGI (COLO 205 colon): 28.2 µM; GI50 (RPMI-8226 leukemia): 16.4 µM; TGI (RPMI-8226 leukemia): 30.2 µM; TGI (NCI-H522 lung): 9.99 µM; GI50 (SNB-75 CNS): 247 nM; TGI (SNB-75 CNS): 1370 nM; GI50 (DU-145 prostate): 1110 nM; TGI (DU-145 prostate): 28.4 µM; GI50 (SN12C renal): 180 nM; TGI (SN12C renal): 12 µM; GI50 (TK-10 renal): 52.4 nM; TGI (TK-10 renal): 1270 nM; GI50 (HS 578T breast): 1490 nM; TGI (HS 578T breast): 6.24 µM; GI50 (MCF7 breast): 13.9 µM; TGI (MCF7 breast): 27.4 µM; GI50 (SK-OV-3 ovarian): 33.3 nM; TGI (SK-OV-3 ovarian): 607 nM; GI50 (PC-3 prostate): 13.3 µM; TGI (PC-3 prostate): 87.7 µM; GI50 (ACHN renal): 36.8 nM; TGI (ACHN renal): 5.84 µM; GI50 (SF-539 CNS): 1550 nM; TGI (SF-539 CNS): 13.1 µM; GI50 (BT-549 breast): 7.04 µM; TGI (BT-549 breast): 20.5 µM; GI50 ([…]-0 renal): 989 nM; TGI (786-0 renal): 14.4 µM; GI50 (M14 melanoma): 19 µM; TGI (M14 melanoma): 33.2 µM; GI50 (MALME-3M melanoma): 12.8 µM; TGI (MALME-3M melanoma): 25.5 µM; GI50 (A498 renal): 1300 nM; TGI (A498 renal): 9 µM; GI50 (RXF 393 renal): 435 nM; TGI (RXF 393 renal): 3.21 µM; TGI (IGROV1 ovarian): 512 nM; GI50 (SF-268 CNS): 4.4 µM; TGI (SF-268 CNS): 70.3 µM; GI50 (NCI-H322M lung): 31.3 nM; TGI (NCI-H322M lung): 941 nM; GI50 (HOP-62 NSCLC): 2700 nM; TGI (HOP-62 NSCLC): 30.2 µM; GI50 (KM12 colon): 3.54 µM; TGI (KM12 colon): 15.7 µM; GI50 (NCI-H23 lung): 2420 nM; TGI (NCI-H23 lung): 16.8 µM; GI50 (MOLT-4 leukemia): 800 nM; TGI (MOLT-4 leukemia): 13.9 µM; GI50 (SF-295 CNS): 13.9 µM; TGI (SF-295 CNS): 30.9 µM; GI50 (UO-31 renal): 1100 nM; TGI (UO-31 renal): 7.47 µM; GI50 (U251 glioblastoma): 12.9 µM; TGI (U251 glioblastoma): 26.4 µM; GI50 (NCI-H226 lung): 1970 nM; TGI (NCI-H226 lung): 12.4 µM; GI50 (HCT-15 colon): 2320 nM; TGI (HCT-15 colon): 32.7 µM; GI50 (SNB-19 CNS): 15.4 µM; TGI (SNB-19 CNS): 83.6 µM; GI50 (T-47D breast): 15.8 µM; TGI (T-47D breast): 30.2 µM; GI50 (OVCAR-3 ovarian): 81.5 nM; TGI (OVCAR-3 ovarian): 21.8 µM; GI50 (UACC-257 melanoma): 11.3 µM; TGI (UACC-257 melanoma): 23.5 µM; GI50 (NCI/ADR-RES ovarian): 11.2 µM; TGI (NCI/ADR-RES ovarian): 27.6 µM; GI50 (MDA-MB-435 melanoma): 18.2 µM; TGI (MDA-MB-435 melanoma): 36.6 µM; GI50 (OVCAR-4 ovarian): 24.8 µM; TGI (OVCAR-4 ovarian): > 100 µM; GI50 (SR leukemia): 12.5 µM; TGI (SR leukemia): 25.2 µM; GI50 (MDA-MB-468 breast): 26.6 nM; TGI (MDA-MB-468 breast): 203 nM; GI50 (CAKI-1 renal): 295 nM; TGI (CAKI-1 renal): 7.12 µM; GI50 (SK-MEL-5 melanoma): 15.6 µM; TGI (SK-MEL-5 melanoma): 29 µM; GI50 (HT29 colon): 12.8 µM; TGI (HT29 colon): 26.4 µM; GI50 (NCI-H460 NSCLC): 11.3 µM; TGI (NCI-H460 NSCLC): 24.3 µM; GI50 (K-562 leukemia): 84.7 nM; TGI (K-562 leukemia): 228 nM; GI50 (CCRF-CEM leukemia): 14.7 µM; TGI (CCRF-CEM leukemia): 28 µM; GI50 (OVCAR-5 ovarian): 686 nM; TGI (OVCAR-5 ovarian): 43.9 µM; GI50 (HL-60(TB) leukemia): 17.6 µM; TGI (HL-60(TB) leukemia): 31.5 µM; GI50 (A549 NSCLC): 902 nM; TGI (A549 NSCLC): 14.4 µM; GI50 (SK-MEL-28 melanoma): 18.3 µM; TGI (SK-MEL-28 melanoma): 32.4 µM; GI50 (MDA-MB-231 breast): 1990 nM; TGI (MDA-MB-231 breast): 25.4 µM; GI50 (HOP-92 NSCLC): 6.62 µM; TGI (HOP-92 NSCLC): 28.9 µM; GI50 (HCC-2998 colon): 12.5 µM; TGI (HCC-2998 colon): 25.5 µM; GI50 (HCT-116 colon): 12.3 µM; TGI (HCT-116 colon): 25.6 µM; GI50 (UACC-62 melanoma): 16.1 µM; TGI (UACC-62 melanoma): 29.8 µM; GI50 (LOX IMVI melanoma): 7.68 µM; TGI (LOX IMVI melanoma): 20.4 µM
